# Reference: patent publication US20230265116A1, “DEGRADATION OF (EGFR) BY CONJUGATION OF EGFR INHIBITORS WITH E3 LIGASE LIGAND AND METHODS OF USE” (BEIGENE, LTD., priority 2020, published 2023)
# Like-named read-outs stand apart in the source and are kept apart here.
# What was measured:
# [1] = molecular target: T1, EGFR L858R/T790M/C797S (BaF3-LTC cells) (Homo sapiens, UniProt P00533, C797S/L858R/T790M); assay: EGFR degradation HTRF assay, BaF3-LTC cells; format: cell-based
# T1 construct: expressed in transfected cells; host or cells: BaF3
# T1 sequence (P00533 25-1210 T790M/C797S/L858R): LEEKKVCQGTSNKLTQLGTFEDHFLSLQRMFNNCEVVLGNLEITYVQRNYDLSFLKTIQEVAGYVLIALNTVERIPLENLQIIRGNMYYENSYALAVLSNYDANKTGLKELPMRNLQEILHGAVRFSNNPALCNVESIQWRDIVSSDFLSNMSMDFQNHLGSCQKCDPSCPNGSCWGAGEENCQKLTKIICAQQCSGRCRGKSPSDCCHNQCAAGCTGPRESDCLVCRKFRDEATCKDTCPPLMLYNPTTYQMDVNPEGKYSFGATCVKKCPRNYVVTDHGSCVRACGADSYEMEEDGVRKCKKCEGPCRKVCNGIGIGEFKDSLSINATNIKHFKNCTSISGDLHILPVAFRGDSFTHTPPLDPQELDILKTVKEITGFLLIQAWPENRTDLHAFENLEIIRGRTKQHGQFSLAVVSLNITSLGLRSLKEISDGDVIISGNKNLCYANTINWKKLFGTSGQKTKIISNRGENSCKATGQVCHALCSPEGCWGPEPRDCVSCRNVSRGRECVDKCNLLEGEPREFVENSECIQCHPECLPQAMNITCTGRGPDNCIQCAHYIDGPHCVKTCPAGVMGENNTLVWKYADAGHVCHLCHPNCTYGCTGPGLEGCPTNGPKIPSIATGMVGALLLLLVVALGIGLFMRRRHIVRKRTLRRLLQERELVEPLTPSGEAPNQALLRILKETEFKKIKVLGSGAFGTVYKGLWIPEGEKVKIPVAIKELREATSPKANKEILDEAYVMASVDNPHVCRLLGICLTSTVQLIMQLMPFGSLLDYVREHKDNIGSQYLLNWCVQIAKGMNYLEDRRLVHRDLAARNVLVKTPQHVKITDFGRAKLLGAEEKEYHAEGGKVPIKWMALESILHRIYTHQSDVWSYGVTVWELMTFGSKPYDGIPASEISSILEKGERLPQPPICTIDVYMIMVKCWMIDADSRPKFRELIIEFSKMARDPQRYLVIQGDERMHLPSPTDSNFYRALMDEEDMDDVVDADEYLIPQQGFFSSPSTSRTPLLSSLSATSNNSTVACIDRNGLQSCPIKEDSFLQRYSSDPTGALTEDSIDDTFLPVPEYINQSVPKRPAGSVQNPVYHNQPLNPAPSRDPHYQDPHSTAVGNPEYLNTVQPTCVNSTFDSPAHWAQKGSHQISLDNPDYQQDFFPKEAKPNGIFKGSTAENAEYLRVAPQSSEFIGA
# In short: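 Cells treated 16 h at 37 °C, 5% CO2 in medium with 0.2% DMSO; top final concentration 10 uM, 5-fold dilution, 8 doses. Lysates read by HTRF (665/620 nm); degradation % versus DMSO high control, DC50 from four-parameter fit, Dmax as maximal degradation.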
# [2] = tested on: EGFR Del19/T790M/C797S (H1975-clone #28); assay: EGFR degradation HTRF assay, H1975-clone #28 DTC cells; format: cell-based
# In short: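 The test uses H1975 clonal lines carrying lentiviral mutant EGFR with endogenous copies removed, treated 16h at 37° C., 5% CO2. EGFR left in the lysate is quantified by HTRF, and DC50 is derived from an 8-dose curve starting at 10 uM final.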
# [3] = BaF3-LTC cells; EGFR degradation, IC50 (DC50) from curve fit; read-out: DC50(nM) BaF3-LTC
# [4] = H1975 # 28 DTC cells; EGFR degradation, IC50 (DC50) from curve fit; read-out: DC50(nM) H1975 # 28 DTC
# [5] = H1975 # 28 DTC cells; maximum percentage of inhibition (degradation)
# [6] = BaF3-LTC cells; maximum percentage of inhibition (degradation); read-out: Dmax (%) BaF3-LTC
SMILES,"DC50 [1, 3] [nM]","DC50 [2, 4] [nM]","Dmax (%) H1975 # 28 DTC [2, 5] [%]","Dmax [1, 6] [%]","DC50 ([1]; read-out: DC50(nM) BaF3-LTC; BaF3-LTC cells; EGFR degradation, IC50 (DC50) from curve fit) [nM]","Dmax ([1]; read-out: Dmax (%) BaF3-LTC, BaF3-LTC cells; maximum percentage of inhibition (degradation)) [%]","DC50 ([2]; read-out: DC50(nM) H1975 # 28 DTC; H1975 # 28 DTC cells; EGFR degradation, IC50 (DC50) from curve fit) [nM]"
"CCOc1cc(N2CCC(N3CCN(CC4CN(c5cc(F)c([C@H]6CCC(=O)NC6=O)c(F)c5)C4)CC3)CC2)c(CC)cc1Nc1ncc(Br)c(Nc2ccc3nc(CC)ccc3c2P(C)(C)=O)n1 [Example 541, (R)-3-(4-(3-((4-(1-(4-((5-bromo-4-((5-(dimethylphosphoryl)-2-ethylquinolin-6-yl)amino)pyrimidin-2-yl)amino)-5-ethoxy-2-ethylphenyl)piperidin-4-yl)piperazin-1-yl)methyl)azetidin-1-yl)2,6-difluorophenyl)piperidine-2,6-dione]",17.8,2.08,88.77,–,–,–,–
"COc1cc(N2CCC3(CCN(CCCCCOc4cccc5c4CN(C4CCC(=O)NC4=O)C5=O)CC3)CC2)c(C)cc1Nc1ncc(Br)c(Nc2ccc3nccnc3c2P(C)(C)=O)n1 (stereo not shown) [Example 542, 3-(4-((5-(9-(4-((5-bromo-4-((5-(dimethylphosphoryl)quinoxalin-6-yl)amino)pyrimidin-2-yl)amino)-5-methoxy-2-methylphenyl)-3,9-diazaspiro[5.5]undecan-3-yl)pentyl)oxy)-1-oxoisoindolin-2-yl)piperidine-2,6-dione]",11.2,0.75,45.37,–,–,–,–
"CCc1cc(Nc2ncc(Br)c(Nc3ccc4nc(C)ccc4c3P(C)(C)=O)n2)c(OC2CC2)cc1N1CCC(N2CCN(C(=O)[C@@H]3CCN(c4cc(F)c([C@H]5CCC(=O)NC5=O)c(F)c4)C3)CC2)CC1 [Example 544, (R)-3-(4-((R)-3-(4-(1-(4-((5-bromo-4-((5-(dimethylphosphoryl)-2-methylquinolin-6-yl)amino)pyrimidin-2-yl)amino)-5-cyclopropoxy-2-ethylphenyl)piperidin-4-yl)piperazine-1-carbonyl)pyrrolidin-1-yl)-2,6-difluorophenyl)piperidine-2,6-dione]",12.5,1.48,81.13,90.3,–,–,–
"CCc1ccc2c(P(C)(C)=O)c(Nc3nc(Nc4cc(CC)c(N5CCC(N6CCN(CCc7cc(F)c([C@H]8CCC(=O)NC8=O)c(F)c7)CC6)CC5)cc4OC4CC4)ncc3Br)ccc2n1 [Example 547, (R)-3-(4-(2-(4-(1-(4-((5-bromo-4-((5-(dimethylphosphoryl)-2-ethylquinolin-6-yl)amino)pyrimidin-2-yl)amino)-5-cyclopropoxy-2-ethylphenyl)piperidin-4-yl)piperazin-1-yl)ethyl)-2,6-difluorophenyl)piperidine-2,6-dione]",4.45,0.647,87.96,89.3,–,–,–
"CCc1cnc2c(P(C)(C)=O)c(Nc3nc(Nc4cc(CC)c(N5CCC(N6CCN(CCc7ccc8c(c7)oc(=O)n8C7CCC(=O)NC7=O)CC6)CC5)cc4OC)ncc3Br)ccc2n1 (stereo not shown) [Example 548, 3-(6-(2-(4-(1-(4-((5-bromo-4-((5-(dimethylphosphoryl)-2-ethylquinoxalin-6-yl)amino)pyrimidin-2-yl)amino)-2-ethyl-5-methoxyphenyl)piperidin-4-yl)piperazin-1-yl)ethyl)-2-oxobenzo[d]oxazol-3(2H)-yl)piperidine-2,6-dione]",–,–,74.38,–,3.63,91.8,0.696
"CCc1ccc2c(P(C)(C)=O)c(Nc3nc(Nc4cc(C5CC5)c(N5CCC(N6CCN(CCc7cc(F)c([C@H]8CCC(=O)NC8=O)c(F)c7)CC6)CC5)cc4OC)ncc3Br)ccc2n1 [Example 550, (R)-3-(4-(2-(4-(1-(4-((5-bromo-4-((5-(dimethylphosphoryl)-2-ethylquinolin-6-yl)amino)pyrimidin-2-yl)amino)-2-cyclopropyl-5-methoxyphenyl)piperidin-4-yl)piperazin-1-yl)ethyl)-2,6-difluorophenyl)piperidine-2,6-dione]",8.12,0.707,87.71,85.9,–,–,–
"CCOc1cc(N2CCC(N3CCN(CCc4ccc5c(c4)oc(=O)n5C4CCC(=O)NC4=O)CC3)CC2)c(C)cc1Nc1ncc(Br)c(Nc2ccc3nc(CC)ccc3c2P(C)(C)=O)n1 (stereo not shown) [Example 552, 3-(6-(2-(4-(1-(4-((5-bromo-4-((5-(dimethylphosphoryl)-2-ethylquinolin-6-yl)amino)pyrimidin-2-yl)amino)-5-ethoxy-2-methylphenyl)piperidin-4-yl)piperazin-1-yl)ethyl)-2-oxobenzo[d]oxazol-3 (2H)-yl)piperidine-2,6-dione]",4.35,0.367,71.85,85.7,–,–,–
"CCOc1cc(N2CCC(N3CCN(CCc4cc5oc(=O)n(C6CCC(=O)NC6=O)c5cc4C)CC3)CC2)c(CC)cc1Nc1ncc(Br)c(Nc2ccc3c(=O)n(CC)ncc3c2P(C)(C)=O)n1 (stereo not shown) [Example 554, 3-(6-(2-(4-(1-(4-((5-bromo-4-((5-(dimethylphosphoryl)-2-ethyl-1-oxo-1,2-dihydrophthalazin-6-yl)amino)pyrimidin-2-yl)amino)-5-ethoxy-2-ethylphenyl)piperidin-4-yl)piperazin-1-yl)ethyl)-5-methyl-2-oxobenzo[d]oxazol-3(2H)-yl)piperidine-2,6-dione]",2.49,0.662,67.4,91.9,–,–,–
"CCOc1cc(N2CCC(N3CCN(CCc4ccc5c(oc(=O)n5C5CCC(=O)NC5=O)c4F)CC3)CC2)c(CC)cc1Nc1ncc(Br)c(Nc2ccc3nc(CC)ccc3c2P(C)(C)=O)n1 (stereo not shown) [Example 555, 3-(6-(2-(4-(1-(4-((5-bromo-4-((5-(dimethylphosphoryl)-2-ethylquinolin-6-yl)amino)pyrimidin-2-yl)amino)-5-ethoxy-2-ethylphenyl)piperidin-4-yl)piperazin-1-yl)ethyl)-7-fluoro-2-oxobenzo[d]oxazol-3(2H)-yl)piperidine-2,6-dione]",7.36,1.89,77.45,94.5,–,–,–
"CCOc1cc(N2CCC(N3CCN(CCC4CCN(c5cc(F)cc6c5oc(=O)n6C5CCC(=O)NC5=O)CC4)CC3)CC2)c(CC)cc1Nc1ncc(Br)c(Nc2ccc3nc(CC)ccc3c2P(C)(C)=O)n1 (stereo not shown) [Example 556, 3-(7-(4-(2-(4-(1-(4-((5-bromo-4-((5-(dimethylphosphoryl)-2-ethylquinolin-6-yl)amino)pyrimidin-2-yl)amino)-5-ethoxy-2-ethylphenyl)piperidin-4-yl)piperazin-1-yl)ethyl)piperidin-1-yl)-5-fluoro-2-oxobenzo[d]oxazol-3(2H)-yl)piperidine-2,6-dione]",14.8,4.03,98.64,92.2,–,–,–
"CCc1cc(Nc2ncc(Br)c(Nc3ccc4nc(C)ccc4c3P(C)(C)=O)n2)c(OC2CC2)cc1N1CCC(N2CCN(CCc3ccc4c(c3)oc(=O)n4C3CCC(=O)NC3=O)CC2)CC1 (stereo not shown) [Example 557, 3-(6-(2-(4-(1-(4-((5-bromo-4-((5-(dimethylphosphoryl)-2-methylquinolin-6-yl)amino)pyrimidin-2-yl)amino)-5-cyclopropoxy-2-ethylphenyl)piperidin-4-yl)piperazin-1-yl)ethyl)-2-oxobenzo[d]oxazol-3(2H)-yl)piperidine-2,6-dione]",6.8,0.773,92.3,89.1,–,–,–
"CCOc1cc(N2CCC(N3CCN(CCc4c(F)ccc5c4n(CC)c(=O)n5C4CCC(=O)NC4=O)CC3)CC2)c(CC)cc1Nc1ncc(Br)c(Nc2ccc3nc(CC)ccc3c2P(C)(C)=O)n1 (stereo not shown) [Example 558, 3-(4-(2-(4-(1-(4-((5-bromo-4-((5-(dimethylphosphoryl)-2-ethylquinolin-6-yl)amino)pyrimidin-2-yl)amino)-5-ethoxy-2-ethylphenyl)piperidin-4-yl)piperazin-1-yl)ethyl)-3-ethyl-5-fluoro-2-oxo-2,3-dihydro-1H-benzo[d]imidazol-1-yl)piperidine-2,6-dione]",13.1,2.59,85.18,–,–,–,–
"CCOc1cc(N2CCC(N3CCN(C[C@H]4CCN(c5cccc6c5oc(=O)n6C5CCC(=O)NC5=O)C4)CC3)CC2)c(CC)cc1Nc1ncc(Br)c(Nc2ccc3c(=O)n(CC)ncc3c2P(C)(C)=O)n1 (stereo partly drawn) [Example 560, 3-(7-((R)-3-((4-(1-(4-((5-bromo-4-((5-(dimethylphosphoryl)-2-ethyl-1-oxo-1,2-dihydrophthalazin-6-yl)amino)pyrimidin-2-yl)amino)-5-ethoxy-2-ethylphenyl)piperidin-4-yl)piperazin-1-yl)methyl)pyrrolidin-1-yl)-2-oxobenzo[d]oxazol-3(2H)-yl)piperidine-2,6-dione]",14.1,1.36,80.68,92.3,–,–,–
